Data published in patent publication US20200299329A1, “SYNTHETIC PEPTIDES, PHARMACEUTICAL COMPOSITIONS COMPRISING THE SAME, AND USES THEREOF IN TREATING THROMBOEMBOLISM-RELATED DISEASES” (Academia Sinica, priority 2019, published 2020).

Tests used:
human thrombus = test: Screening of thrombus-binding activity of phages by ELISA; settings: for dose-dependent thrombus-specific binding by ELISA: BSA binding as negative control, FIG. 1C/1D; for binding affinity to human thrombus (ELISA, absorption at 450 nm): screening of 72 phage clones from the fifth round of biopanning, FIG. 1B
Description: A human thrombus was isolated and collected from a cadaver about 20 years ago in a course of fresh cadaver dissection and partial thrombus was grounded to powder and then incubated with 2×10^11 phages in 1% BSA in PBS at 4° C. for 1 hour. After washing with PBS, the bound phages were eluted from the thrombus tissue and amplified using E. coli for subsequent rounds of selection. The eluted and amplified phages were titrated on lysogeny broth (LB) medium plates containing isopropyl β-D-1-thiogalactopyranoside (IPTG) and X-Gal (5-bromo-4-chloro-3-indolyl-D-galactoside). The biopanning steps described above were repeated five times before phage clones were randomly selected for thrombus ELISA screening.
The grinded human thrombus tissue or BSA in coating buffer was used to coat 96-well ELISA plates overnight. After blocking and washing, the selected phage clones were added and incubated for 1 hour at room temperature (RT). After washing with PBS, each well was probed with horseradish peroxidase (HRP)-conjugated mouse anti-M13 antibodies (1:2000 dilution) for 1 hour at RT. After repeating the wash step, the plates were developed with ELISA substrate solution. The reaction was terminated with 3N hydrochloric acid, and the absorbance of the colorimetric substrate was analyzed using a microplate reader at 450 nm.

induced thrombus = test: In vivo infrared fluorescence imaging of HILYTE FLUOR 750-conjugated protein at the thrombus; parameters: species or system mice; settings: FIG. 5B
Description: Fifty micrograms of tPA or targeting peptide-tPA fusion and 4 nM HILYTE FLUOR™ 750 were mixed for 45 minutes at RT to promote conjugation. The solution was dialyzed with a 3.5-kDa-cut-off membrane overnight at 4° C. Time-course fluorescence measurements were made in mice with thrombi after intravenous injection of HILYTE FLUOR™ 750-labeled tPA or targeting peptide-tPA fusion protein. Fluorescence images were captured using an imaging system. Accumulation of HILYTE FLUOR™ 750 in the thrombus was quantified by subtracting background florescence intensity.
Fifty micrograms of thrombus affinity peptide-tPA was mixed with 4 nM HILYTE FLUOR™ 750 and incubated for 45 minutes at RT in the dark to promote the conjugation. Dialysis was performed with a 3.5-kDa-cut-off membrane overnight at 4° C. to remove excess dye. A time-course of infrared fluorescence images were acquired after intravenous injection of HILYTE FLUOR™ 750-conjugated fusion protein or tPA. Infrared fluorescence images of HILYTE FLUOR™ 750-conjugated protein were captured in living using an imaging system. Accumulation of HILYTE FLUOR™ 750 fluorescence signal in the induced thrombus was quantified and analyzed by software.

Substance	dose-dependent thrombus-specific binding by ELISA (human thrombus)	binding affinity to human thrombus (ELISA, absorption at 450 nm) (human thrombus)	time after injection at which accumulation at the induced thrombus was seen (induced thrombus; dye-conjugated protein, i.v., mice with induced thrombus) [min]	decrease of fluorescence intensity at the induced thrombus (induced thrombus; in 1 hour after i.v. injection) [%]
TEANLSSWVFAR [PC39]	best thrombus-specific binding	relatively high binding affinity		
LQKNPFDLVQIL [PC66]	best thrombus-specific binding	relatively high binding affinity		
tPA: human recombinant tissue plasminogen activator without thrombus binding peptide, used as control			≤ 5	50
FQNEWFHNFLHD [PC30]	best thrombus-specific binding	relatively high binding affinity		
